In patent US8846704B2, “Thiopyrimidine-based compounds and uses thereof” (YM Biosciences Austraila Pty Ltd, priority 2007, dated 2014):

Assays:
[1] = target: T1, BaF3 TELJAK2 cells (BafT_J2) (Homo sapiens, UniProt O60674); experiment: Cellular screening, BaF3 TEL:JAK2 cells, Alamar Blue; assay type: cell-based; conditions: 40 hr, read-out: BafT_J2 IC50_nM
T1 construct: fused on or other part: TEL (ETV6) N-terminal part, coding nucleotides 1-487, serves as the oligomerising partner; It is fused through a Sal I site to the JAK2 kinase domain and expressed from pTRE2 in BaF3 cells bearing pTET-off; P41212 (Transcription factor ETV6)
Procedure, shortened: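 Tet-off BaF3 cells carrying a TEL (nt 1-487)–JAK2 kinase-domain fusion, grown factor-independently in DMEM with 10% Tet-approved FBS without WEHI 3B medium. Compounds were diluted to 20 μM in screening plates, and cells (50,000–200,000 cell/mL at 1.1×) were incubated 40 hr at 37 °C, 5% CO2. Alamar Blue was then added for 4-6 hours; read at 544 nm.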

[2] = system: CTLL2; experiment: Cellular screening, CTLL2 cells, Alamar Blue; assay type: cell-based; conditions: Mus musculus, CTLL-2, read-out: CTLL2 IC50_nM
Procedure, shortened: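 CTLL2 cells in late log phase incubated with compound for 40 hr at 37° C, 5% CO2. Viability then read at 544 nm after a further 4-6 hours with Alamar Blue.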

[3] = target: T2, human JAK3 (Homo sapiens, UniProt P52333); experiment: Alphascreen tyrosine kinase enzyme assay, JAK3 kinase domain; assay type: biochemical; conditions: read-out: JAK3 IC50_nM
T2 construct: The kinase domain of human JAK3 was amplified; GST (N); made in house; host or cells: Sf9 insect cells (baculovirus)
Procedure, shortened: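 GST-affinity-purified human JAK3 kinase domain (baculovirus/Sf9) was pre-incubated 20 min with compound ([…]) in HEPES pH 7.5 buffer with MgCl2, vanadate and Tween 20. Biotinylated peptide substrate ([…]) and ATP were then added; phosphotyrosine was detected by AlphaScreen PY100 acceptor and streptavidin donor beads after 2–3 h.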

[4] = target: T3, human JAK2 (Homo sapiens, UniProt O60674); experiment: Alphascreen tyrosine kinase enzyme assay, JAK2 kinase domain; assay type: biochemical; conditions: read-out: JAK2 IC50_nM
T3 construct: The kinase domain of human JAK2 was amplified; GST (N); made in house; host or cells: Sf9 insect cells (baculovirus)
Procedure, shortened: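 JAK2 kinase domain expressed in baculovirus/Sf9 and glutathione-affinity purified. Compounds (final […]) pre-incubated 20 min with enzyme in 10 mM HEPES pH 7.5, MgCl2, NaCl, vanadate, 0.1% Tween 20.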

[5] = system: BaF3 wild-type cells; experiment: Cellular screening, BaF3 wild-type cells, Alamar Blue; assay type: cell-based; conditions: Mus musculus, 40 hr, read-out: BAF3wt IC50_nM
Procedure, shortened: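 Cells were cultured in DMEM with 10% FCS and 10% WEHI 3B conditioned medium, and suspensions were prepared at 1.1× final (50,000–200,000 cells/mL). Compounds from 20 μM dilution plates were added at 10× final and incubated for 40 hr at 37° C, 5% CO2. Alamar Blue was then added for 4–6 hours and read at 544 nm.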

T3 sequence (O60674 849-1124 limits assumed): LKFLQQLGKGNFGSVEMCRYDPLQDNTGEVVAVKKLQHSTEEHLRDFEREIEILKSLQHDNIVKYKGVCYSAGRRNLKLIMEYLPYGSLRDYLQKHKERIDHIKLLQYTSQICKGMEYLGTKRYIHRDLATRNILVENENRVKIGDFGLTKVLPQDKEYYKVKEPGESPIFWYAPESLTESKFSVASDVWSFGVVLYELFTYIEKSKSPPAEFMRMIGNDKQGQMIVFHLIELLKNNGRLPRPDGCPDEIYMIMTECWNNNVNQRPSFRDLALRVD
T2 sequence (P52333 822-1111 limits assumed): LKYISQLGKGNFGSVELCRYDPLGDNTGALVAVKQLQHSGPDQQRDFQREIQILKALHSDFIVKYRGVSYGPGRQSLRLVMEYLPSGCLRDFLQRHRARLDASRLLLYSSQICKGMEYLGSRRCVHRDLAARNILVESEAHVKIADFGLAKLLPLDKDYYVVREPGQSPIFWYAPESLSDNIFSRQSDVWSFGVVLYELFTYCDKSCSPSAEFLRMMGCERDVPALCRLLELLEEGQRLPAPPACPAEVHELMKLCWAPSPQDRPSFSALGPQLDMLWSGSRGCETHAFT
T1 sequence (O60674 whole entry, change not shown, the tested form may be a part): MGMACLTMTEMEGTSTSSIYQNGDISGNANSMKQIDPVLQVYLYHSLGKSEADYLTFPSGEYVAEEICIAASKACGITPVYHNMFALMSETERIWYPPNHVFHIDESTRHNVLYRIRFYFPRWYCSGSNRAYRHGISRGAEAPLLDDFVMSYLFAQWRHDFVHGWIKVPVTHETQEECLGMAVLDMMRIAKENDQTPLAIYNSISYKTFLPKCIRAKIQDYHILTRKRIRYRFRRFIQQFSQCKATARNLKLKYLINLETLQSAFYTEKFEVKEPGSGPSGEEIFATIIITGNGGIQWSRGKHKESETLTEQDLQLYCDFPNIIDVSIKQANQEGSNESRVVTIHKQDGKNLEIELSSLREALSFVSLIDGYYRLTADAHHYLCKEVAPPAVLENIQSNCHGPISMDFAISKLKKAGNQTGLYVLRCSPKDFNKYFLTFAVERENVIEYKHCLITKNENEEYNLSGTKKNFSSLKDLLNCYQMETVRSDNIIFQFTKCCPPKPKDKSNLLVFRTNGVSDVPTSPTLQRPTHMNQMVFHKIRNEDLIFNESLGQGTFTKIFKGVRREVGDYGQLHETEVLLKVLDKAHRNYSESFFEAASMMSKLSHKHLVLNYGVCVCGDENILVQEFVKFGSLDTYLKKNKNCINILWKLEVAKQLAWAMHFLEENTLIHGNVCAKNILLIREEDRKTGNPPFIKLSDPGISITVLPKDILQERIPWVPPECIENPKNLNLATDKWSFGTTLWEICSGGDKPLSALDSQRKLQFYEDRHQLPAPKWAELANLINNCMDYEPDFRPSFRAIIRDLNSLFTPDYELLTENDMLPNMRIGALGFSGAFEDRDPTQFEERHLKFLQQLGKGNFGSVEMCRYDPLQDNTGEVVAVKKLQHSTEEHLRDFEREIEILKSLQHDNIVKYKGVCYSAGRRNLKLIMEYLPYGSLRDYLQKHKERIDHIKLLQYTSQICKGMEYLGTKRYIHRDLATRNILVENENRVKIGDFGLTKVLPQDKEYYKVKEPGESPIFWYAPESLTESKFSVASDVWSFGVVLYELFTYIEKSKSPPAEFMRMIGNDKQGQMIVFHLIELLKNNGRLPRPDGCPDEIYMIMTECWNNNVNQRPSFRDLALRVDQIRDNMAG

In the case of `COC(=O)COCC(=O)Nc1ccc(Sc2nc(Nc3ccc(N4CCOCC4)cc3)ncc2C)cc1` [Compound 189, methyl 2-(2-(4-(5-methyl-2-(4-morpholinophenylao)pyrimidin-4-ylthio)phenylao)-2-oxoethoxy)acetate], the GI50 [1] is reported as < 20000 nM, the IC50 [2] is reported as > 20000 nM and the IC50 [3] is reported as < 500 nM. The IC50 [4] was > 1000 nM and the IC50 [5] was < 20000 nM.

In the case of `C=CC(=O)Nc1ccc(Sc2ccnc(Nc3ccc(S(=O)(=O)N4CCOCC4)cc3)n2)cc1` [Compound 367, N-(4-(2-(4-(morpholinosulfonyl)phenylao)pyrimidin-4-ylthio)phenyl)acrylamide], the GI50 [1] is reported as < 20000 nM, the IC50 [2] is reported as < 20000 nM and the IC50 [3] is reported as < 100 nM. For the same compound, the IC50 [4] was > 1000 nM and the IC50 [5] was < 20000 nM.

`Nc1ccc(Sc2nc(Nc3ccc(N4CCOCC4)cc3)ncc2I)cc1` [Compound 309, 4-(4-aophenylthio)-5-iodo-N-(4-morpholinophenyl)pyrimidin-2-ae] was tested, and the GI50 [1] was < 5000 nM, the IC50 [2] was < 1000 nM and the IC50 [3] was < 500 nM. For the same compound, the IC50 [4] was > 1000 nM and the IC50 [5] was < 5000 nM.

`C=CC(=O)Nc1cc(C)c(Sc2nc(Nc3ccc(N4CCOCC4)cc3)ncc2C)c(C)c1` [Compound 164, N-(3,5-dimethyl-4-(5-methyl-2-(4-morpholinophenylao)pyrimidin-4-ylthio)phenyl)acrylamide] was tested, and the GI50 [1] was < 20000 nM, the IC50 [2] was < 1000 nM and the IC50 [3] was < 100 nM. For the same compound, the IC50 [4] was > 1000 nM and the IC50 [5] was > 20000 nM.

With `C=CC(=O)Nc1ccc(Sc2ccnc(Nc3cccc(S(N)(=O)=O)c3)n2)cc1` [Compound 364, N-(4-(2-(3-sulfamoylphenylao)pyrimidin-4-ylthio)phenyl)acrylamide] the GI50 [1] was < 5000 nM, the IC50 [2] was < 1000 nM and the IC50 [3] was < 100 nM. For the same compound, the IC50 [4] was > 1000 nM and the IC50 [5] was < 20000 nM.

For `C=CC(=O)Nc1ccc(Sc2ccnc(Nc3ccc(OC)cc3)n2)cc1` [Compound 74, N-(4-(2-(4-methoxyphenylao)pyrimidin-4-ylthio)phenyl)acrylamide], the GI50 [1] was > 20000 nM, the IC50 [2] was < 5000 nM and the IC50 [3] was < 100 nM. For the same compound, the IC50 [4] was > 1000 nM and the IC50 [5] was > 20000 nM.
